The subject of data set [1] is HBV replication in HepAD38 cells. The experiment in a line: Anti-HBV replication assay in HepAD38 cells (QPCR of extracellular HBV DNA). The class given is cell-based, HBV (genotype D, serotype ayw). Conditions: Hepatitis B virus, 168 h, 7 days incubation, extracellular HBV DNA by QPCR, read-out: Anti-HBV EC50. The essentials: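 Compounds (1 log10 serial dilutions, […]) were left 7 days on tetracycline-free HepAD38 cultures, a HepG2 line with tet-controlled HBV genotype D. EC50 came from 4-parameter regression of percent inhibition versus vehicle, using supernatant HBV DNA copies/mL measured by QPCR.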

Data set [2] can be described thus: In vitro cytotoxicity assay (MTT cell viability) in HepG2 cells. The class given is cell-based, human. Conditions: human. The essentials: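 Using MTT conversion as the viability measure, HepG2 cells were incubated with compounds for 7 days (30 μM to 1.0 nM). Absorbance at 492 nm was normalized to vehicle and fitted to give CC50.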

SMILES strings stand for the structures. A value given as a limit tells only on which side of the number the result lay.

Broadly, the EC50 is the concentration at which the effect is half-maximal. By CC50 is commonly meant the concentration giving 50% cytotoxicity. Low readings indicate harm at low concentration, high ones better tolerance by the cells. Turning to `O=C(NC1(CO)CC(F)(F)C1)C(=O)c1c(Cl)c(C(=O)Nc2ccc(F)c(Cl)c2)c2n1CCCC2` [Example 515, 2-chloro-N-(3-chloro-4-fluorophenyl)-3-(2-((3,3-difluoro-1-(hydroxymethyl)cyclobutyl)amino)-2-oxoacetyl)-5,6,7,8-tetrahydroindolizine-1-carboxamide], the EC50 in data set [1] was below 50 nM. In data set [2], the CC50 at 7 days was in the range of 5 to 30 µM.

In the case of `Cc1cc(NC(=O)c2c(Cl)c(C(=O)C(=O)NCC(C)(C)CO)n3c2CCCC3)ccc1F` [Example 498, 2-chloro-N-(4-fluoro-3-methylphenyl)-3-(2-((3-hydroxy-2,2-dimethylpropyl)amino)-2-oxoacetyl)-5,6,7,8-tetrahydroindolizine-1-carboxamide], the EC50 in data set [1] is 50 to 499 nM. Further, in data set [2], the CC50 at 7 days was above 30 µM.

As to `Cc1cc(NC(=O)c2c(C)c(C(=O)C(=O)NC3CCS(=O)(=O)CC3)n(C)c2C)ccc1F` [Example 249, 5-(2-((1,1-dioxidotetrahydro-2H-thiopyran-4-yl)amino)-2-oxoacetyl)-N-(4-fluoro-3-methylphenyl)-1,2,4-trimethyl-1H-pyrrole-3-carboxamide], in data set [1], the EC50 was below 50 nM. This molecule also registered a CC50 at 7 days in data set [2] of 5 to 30 µM.

In the case of `C#CCO[C@H]1CC[C@@H](NC(=O)C(=O)c2c(C)c(C(=O)Nc3ccc(F)c(C)c3)c(C)n2C)CC1` [Example 629, N-(4-fluoro-3-methylphenyl)-1,2,4-trimethyl-5-(2-oxo-2-(((1s,4s)-4-(prop-2-yn-1-yloxy)cyclohexxyl)amino)acetyl)-1H-pyrrole-3-carboxamide], the EC50 in data set [1] is below 50 nM. Further, in data set [2], the CC50 at 7 days is above 30 µM.

Turning to `Cc1cc(NC(=O)c2c(C)c(C(=O)C(=O)N[C@H]3CC[C@H](CO)CC3)n(C)c2C)ccc1F` [Example 675, N-(4-fluoro-3-methylphenyl)-5-(2-(((1r,4r)-4-(hydroxymethyl)cyclohexyl)amino)-2-oxoacetyl)-1,2,4-trimethyl-1H-pyrrole-3-carboxamide], in data set [1], the EC50 is below 50 nM. Besides, in data set [2], the CC50 at 7 days is above 30 µM.

Turning to `Cc1cc(NC(=O)c2c(C)c(C(=O)C(=O)NC3(C)CCN(C(=O)c4cnn5cccnc45)CC3)n(C)c2C)ccc1F` [Example 719, N-(4-fluoro-3-methylphenyl)-1,2,4-trimethyl-5-(2-((4-methyl-1-(pyrazolo[1,5-a]pyrimidine-3-carbonyl)piperidin-4-yl)amino)-2-oxoacetyl)-1H-pyrrole-3-carboxamide], the EC50 in data set [1] is below 50 nM. In addition, the CC50 at 7 days in data set [2] was above 30 µM.

For the molecule `CC(C)(CO)CNC(=O)C(=O)c1c(Cl)c(C(=O)Nc2ccc(F)c(Cl)c2)c2n1CCCC2` [Example 527, 2-chloro-N-(3-chloro-4-fluorophenyl)-3-(2-((3-hydroxy-2,2-dimethylpropyl)amino)-2-oxoacetyl)-5,6,7,8-tetrahydroindolizine-1-carboxamide], in data set [1], the EC50 is 500 to 1000 nM. In data set [2], this molecule returned a CC50 at 7 days of 0.5 to 4.99 µM.

Take `Cc1cc(NC(=O)c2c(C)c(C(=O)C(=O)N[C@@H](C(=O)O)C(C)(C)C)n(C)c2C)ccc1F` [Example 31, (R)-2-(2-(4-((4-fluoro-3-methylphenyl)carbamoyl)-1,3,5-trimethyl-1H-pyrrol-2-yl)-2-oxoacetamido)-3,3-dimethylbutanoic acid]: in data set [1], the EC50 lay within 50 to 499 nM. In addition, the CC50 at 7 days in data set [2] is above 30 µM.

On to `Cc1cc(NC(=O)c2c(C)c(C(=O)C(=O)N[C@H](C)C(F)(F)F)n(C)c2C)cnc1F` [Example 165, (R)-N-(6-fluoro-5-methylpyridin-3-yl)-1,2,4-trimethyl-5-(2-oxo-2-((1,1,1-trifluoropropan-2-yl)amino)acetyl)-1H-pyrrole-3-carboxamide], for which, in data set [1], the EC50 was below 50 nM. The molecule also yielded a CC50 at 7 days in data set [2] above 30 µM.

Regarding `Cc1cc(NC(=O)c2c(Cl)c(C(=O)C(=O)NCC(C)(C)O)n3c2CCC3)cnc1F` [Example 578, 6-chloro-N-(6-fluoro-5-methylpyridin-3-yl)-5-(2-((2-hydroxy-2-methylpropyl)amino)-2-oxoacetyl)-2,3-dihydro-1H-pyrrolizine-7-carboxamide], the EC50 in data set [1] lay in the range of 500 to 1000 nM. Moreover, in data set [2], the CC50 at 7 days was above 30 µM.

With `Cc1cc(NC(=O)c2c(C)c(C(=O)C(=O)NC3(C)CC(F)(F)C3)n(C)c2C)cnc1F` [Example 206, 5-(2-((3,3-difluoro-1-methylcyclobutyl)amino)-2-oxoacetyl)-N-(6-fluoro-5-methylpyridin-3-yl)-1,2,4-trimethyl-1H-pyrrole-3-c carboxamide], the EC50 in data set [1] is below 50 nM. Moreover, the CC50 at 7 days in data set [2] was above 30 µM.

Regarding `CCN(CC)CCNC(=O)C(=O)c1c(C)c(C(=O)Nc2ccc(F)c(C)c2)c(C)n1C` [Example 329, 5-(2-((2-(diethylamino)ethyl)amino)-2-oxoacetyl)-N-(4-fluoro-3-methylphenyl)-1,2,4-trimethyl-1H-pyrrole-3-carboxamide], the EC50 in data set [1] was 500 to 1000 nM. In data set [2], the CC50 at 7 days was above 30 µM.

As for `Cc1cc(NC(=O)c2c(C)c(C(=O)C(=O)N[C@H]3CCC[C@H]3O)n(C)c2C)ccc1F` [Example 94, N-(4-fluoro-3-methylphenyl)-5-(2-(((1S,2R)-2-hydroxycyclopentyl)amino)-2-oxoacetyl)-1,2,4-trimethyl-1H-pyrrole-3-carboxamide], the concentration for a half-maximal effect (EC50) in data set [1] was below 50 nM. The molecule further gave a CC50 at 7 days in data set [2] above 30 µM.

With `Cc1cc(NC(=O)c2c(Cl)c(C(=O)C(=O)NC3(CO)CC(F)(F)C3)n3c2CCCC3)cnc1F` [Example 507, 2-chloro-3-(2-((3,3-difluoro-1-(hydroxymethyl)cyclobutyl)amino)-2-oxoacetyl)-N-(6-fluoro-5-methylpyridin-3-yl)-5,6,7,8-tetrahydroindolizine-1-carboxamide], the EC50 in data set [1] lay in the range of 50 to 499 nM. Further, the CC50 at 7 days in data set [2] is above 30 µM.

Turning to `Cc1cc(NC(=O)c2c(C)c(C(=O)C(=O)NC3(CO)CCC3)n(C)c2C)ccc1F` [Example 12, N-(4-fluoro-3-methylphenyl)-5-(2-((1-(hydroxymethyl)cyclobutyl)amino)-2-oxoacetyl)-1,2,4-trimethyl-1H-pyrrole-3-carboxamide], the concentration for a half-maximal effect (EC50) in data set [1] was below 50 nM. Moreover, in data set [2], the CC50 at 7 days was above 30 µM.

For `Cc1cc(NC(=O)c2c(C)c(C(=O)C(=O)N3CCC(O)C(C)(C)C3)n(C)c2C)ccc1F` (stereo not drawn) [Example 53, N-(4-fluoro-3-methylphenyl)-5-(2-(4-hydroxy-3,3-dimethylpiperidin-1-yl)-2-oxoacetyl)-1,2,4-trimethyl-1H-pyrrole-3-carboxamide], the EC50 in data set [1] is 50 to 499 nM. In data set [2], this molecule yielded a CC50 at 7 days above 30 µM.

Consider `Cc1cnc(C(C)(C)NC(=O)C(=O)c2cc(C(=O)Nc3ccc(F)c(C)c3)c3n2CCCC3)s1` [Example 413, N-(4-fluoro-3-methylphenyl)-3-(2-((2-(5-methylthiazol-2-yl)propan-2-yl)amino)-2-oxoacetyl)-5,6,7,8-tetrahydroindolizine-1-carboxamide], for which the EC50 in data set [1] was in the range of 50 to 499 nM. This molecule showed a CC50 at 7 days in data set [2] above 30 µM.

As to `O=C(NC1(CO)CC(F)(F)C1)C(=O)c1c(Cl)c(C(=O)Nc2ccc(F)c(Cl)c2)c2n1CCC2` [Example 580, 6-chloro-N-(3-chloro-4-fluorophenyl)-5-(2-((3,3-difluoro-1-(hydroxymethyl)cyclobutyl)amino)-2-oxoacetyl)-2,3-dihydro-1H-pyrrolizine-7-carboxamide], the EC50 in data set [1] is below 50 nM. In addition, the CC50 at 7 days in data set [2] is 5 to 30 µM.

Consider `Cc1cc(NC(=O)c2c(C)c(C(=O)C(=O)NC3(C)CC[C@H](O)[C@H](O)C3)n(C)c2C)ccc1F` (stereo partly drawn) [Example 703, 5-(2-(((3R,4S)-3,4-dihydroxy-1-methylcyclohexyl)amino)-2-oxoacetyl)-N-(4-fluoro-3-methylphenyl)-1,2,4-trimethyl-1H-pyrrole-3-carboxamide], for which the EC50 in data set [1] was below 50 nM. The molecule further returned a CC50 at 7 days in data set [2] above 30 µM.

In the case of `Cc1nnc(CCNC(=O)C(=O)c2c(C)c(C(=O)Nc3ccc(F)c(C)c3)c(C)n2C)s1` [Example 356], the EC50 in data set [1] was below 50 nM. In data set [2], this molecule came in with a CC50 at 7 days above 30 µM.

Turning to `Cc1cc(NC(=O)c2c(C)c(C(=O)C(=O)NC(C)(C)CO)n3c2CCCC3)ccc1F` [Example 436, N-(4-fluoro-3-methylphenyl)-3-(2-((1-hydroxy-2-methylpropan-2-yl)amino)-2-oxoacetyl)-2-methyl-5,6,7,8-tetrahydroindolizine-1-carboxamide], the EC50 in data set [1] fell in the range of 50 to 499 nM. The CC50 at 7 days in data set [2] is above 30 µM.

With `Cc1noc([C@H](C)NC(=O)C(=O)c2cc(C(=O)Nc3ccc(F)c(C)c3)c3n2CCCC3)n1` [Example 430, (S)-N-(4-fluoro-3-methylphenyl)-3-(2-((1-(3-methyl-1,2,4-oxadiazol-5-yl)ethyl)amino)-2-oxoacetyl)-5,6,7,8-tetrahydroindolizine-1-carboxamide], the EC50 in data set [1] lay within 50 to 499 nM. In data set [2], the CC50 at 7 days is above 30 µM.

`CC(=O)N[C@H]1C[C@@H](NC(=O)C(=O)c2c(C)c(C(=O)Nc3ccc(F)c(C)c3)c(C)n2C)C1` [Example 668, 5-(2-(((1s,3s)-3-acetamidocyclobutyl)amino)-2-oxoacetyl)-N-(4-fluoro-3-methylphenyl)-1,2,4-trimethyl-1H-pyrrole-3-carboxamide]: the EC50 in data set [1] is below 50 nM. Further, the CC50 at 7 days in data set [2] is above 30 µM.

With `Cc1cc(NC(=O)c2c(C)c(C(=O)C(=O)NC3CCc4nc(N)sc4C3)n(C)c2C)ccc1F` (stereo not drawn) [Example 20, 5-(2-((2-amino-4,5,6,7-tetrahydrobenzo[d]thiazol-6-yl)amino)-2-oxoacetyl)-N-(4-fluoro-3-methylphenyl)-1,2,4-trimethyl-1H-pyrrole-3-carboxamide], the EC50 in data set [1] is below 50 nM. In data set [2], this molecule yielded a CC50 at 7 days of 0.5 to 4.99 µM.
